Test results reported in patent US6063778A, “Cephalosporin derivatives and processes for the preparation thereof” (Il-Dong Pharm. Co., Ltd., priority 1995, dated 2000).
≈ marks a conversion by molar mass, not a printed value. Like-named read-outs stand apart in the source and are kept apart here.

Legend:
[1] = tested on: Pseudomonas aeruginosa 1771; assay: MIC by agar dilution, in vitro activity test; assay type: cell-based; conditions: 37° C., 18 to 20 hours, read-out: Minimal Inhibitory Concentration (MIC)
Method: These MIC values were determined by agar dilution method: that is, two-fold dilutions of each of the test compounds were made and dispersed in a Mueller-Hinton Broth medium.

[2] = tested on: Pseudomonas aeruginosa 9071; assay: MIC by agar dilution, in vitro activity test; assay type: cell-based; conditions: 37° C., 18 to 20 hours, read-out: Minimal Inhibitory Concentration (MIC)
Method: (§1) These MIC values were determined by agar dilution method: that is, two-fold dilutions of each of the test compounds were made and dispersed in a Mueller-Hinton Broth medium. Standard test strain which had the 10^6 CFU per ml was inoculated on the medium, and was incubated at 37° C. for 18 to 20 hours.

[3] = tested on: Escherichia coli TEM; assay: MIC by agar dilution, in vitro activity test; assay type: cell-based; conditions: 20 h, read-out: Minimal Inhibitory Concentration (MIC)
Method: as §1

[4] = tested on: Escherichia coli 1507E; assay: MIC by agar dilution, in vitro activity test; assay type: cell-based; conditions: Escherichia coli 1507E; agar dilution, 37° C., 18 to 20 hours; read-out: Minimal Inhibitory Concentration (MIC)
Method: as §1

[5] = tested on: Staphylococcus aureus 285; assay: MIC by agar dilution, in vitro activity test; assay type: cell-based; conditions: 37° C., 18 to 20 hours, read-out: Minimal Inhibitory Concentration (MIC)
Method: as §1

[6] = tested on: Streptococcus pyogenes 71A; assay: MIC by agar dilution, in vitro activity test; assay type: cell-based; conditions: 37° C., 18 to 20 hours, read-out: Minimal Inhibitory Concentration (MIC)
Method: as §1

[7] = tested on: Escherichia coli 078; assay: MIC by agar dilution, in vitro activity test; assay type: cell-based; conditions: 37° C., 18 to 20 hours, read-out: Minimal Inhibitory Concentration (MIC)
Method: as §1

[8] = tested on: Pseudomonas aeruginosa 1771M; assay: MIC by agar dilution, in vitro activity test; assay type: cell-based; conditions: 20 h, read-out: Minimal Inhibitory Concentration (MIC)
Method: as §1

[9] = tested on: Pseudomonas aeruginosa 9027; assay: MIC by agar dilution, in vitro activity test; assay type: cell-based; conditions: 37° C., 18 to 20 hours, read-out: Minimal Inhibitory Concentration (MIC)
Method: as §1

[10] = tested on: Klebsiella aerogenes 1082E; assay: MIC by agar dilution, in vitro activity test; assay type: cell-based; conditions: 37° C., 18 to 20 hours, read-out: Minimal Inhibitory Concentration (MIC)
Method: as §1

[11] = tested on: Escherichia coli DC 0; assay: MIC by agar dilution, in vitro activity test; assay type: cell-based; conditions: DC0, 37° C., 18 to 20 hours, read-out: Minimal Inhibitory Concentration (MIC)
Method: as §1

[12] = tested on: Streptococcus pyogenes 77A; assay: MIC by agar dilution, in vitro activity test; assay type: cell-based; conditions: 37° C., 18 to 20 hours, read-out: Minimal Inhibitory Concentration (MIC)
Method: as §1

[13] = tested on: Staphylococcus aureus SG511; assay: MIC by agar dilution, in vitro activity test; assay type: cell-based; conditions: 37° C., 18 to 20 hours, read-out: Minimal Inhibitory Concentration (MIC)
Method: as §1

[14] = tested on: Streptococcus faecium MD 8b; assay: MIC by agar dilution, in vitro activity test; assay type: cell-based; conditions: Enterococcus faecium, MD8B, read-out: Minimal Inhibitory Concentration (MIC)
Method: as §1

[15] = tested on: Enterobacter cloace 1321E; assay: MIC by agar dilution, in vitro activity test; assay type: cell-based; conditions: 37° C., 18 to 20 hours, read-out: Minimal Inhibitory Concentration (MIC)
Method: as §1

[16] = tested on: Escherichia coli DC 2; assay: MIC by agar dilution, in vitro activity test; assay type: cell-based; conditions: DC2, 37° C., 18 to 20 hours, read-out: Minimal Inhibitory Concentration (MIC)
Method: as §1

[17] = tested on: Klebsiella aerogenes 1522E; assay: MIC by agar dilution, in vitro activity test; assay type: cell-based; conditions: Klebsiella aerogenes 1522E; agar dilution, 37° C., 18 to 20 hours; read-out: Minimal Inhibitory Concentration (MIC)
Method: as §1

[18] = tested on: Enterobacter cloace P99; assay: MIC by agar dilution, in vitro activity test; assay type: cell-based; conditions: P99, 20 h, read-out: Minimal Inhibitory Concentration (MIC)
Method: as §1

[19] = tested on: Staphylococcus aureus 503; assay: MIC by agar dilution, in vitro activity test; assay type: cell-based; conditions: 37° C., 18 to 20 hours, read-out: Minimal Inhibitory Concentration (MIC)
Method: as §1

[20] = tested on: Pseudomonas aeruginosa 1592E; assay: MIC by agar dilution, in vitro activity test; assay type: cell-based; conditions: 37° C., 18 to 20 hours, read-out: Minimal Inhibitory Concentration (MIC)
Method: as §1

[21] = tested on: Salmonella typhimurium; assay: MIC by agar dilution, in vitro activity test; assay type: cell-based; conditions: Salmonella enterica, 37° C., 18 to 20 hours, read-out: Minimal Inhibitory Concentration (MIC)
Method: as §1

[22] = Acute toxicity study; assay type: in vivo; conditions: mouse, in vivo
Method: In order to illustrate usefulness of the compounds of the present invention, acute toxicity test of the compounds synthesized in the above Examples were carried out. Each dose of the compounds dissolved in saline and buffer solution (PH=7.0) was administered by intravenous or subcutaneous injection. Mortalities of the animals was recorded seven days latter.
.asterisk-pseud. Mouse: Male ICR strain, 4 weeks

[23] = tested on: Staphylococcus aureus, Escherichia coli and Pseudomonas aeruginosa; assay: MIC by agar dilution, comparison in words; assay type: cell-based; conditions: against Staphylococcus aureus, vs Cefotaxime
Method: as §1

[24] = iv, i.v, male ICR mouse, 4 weeks, mortality at seven days, read-out: LD50 i.v
[25] = iv, intravenous routes, read-out: acute toxicity in intravenous routes
[26] = sc, s.c, male ICR mouse, 4 weeks, mortality at seven days, read-out: LD50 s.c

SMILES	MIC [1] [µg/mL]	MIC [2] [µg/mL]	MIC [3] [µg/mL]	MIC [4] [µg/mL]	MIC [5] [µg/mL]	MIC [6] [µg/mL]	MIC [7] [µg/mL]	MIC [8] [µg/mL]	MIC [9] [µg/mL]	MIC [10] [µg/mL]	MIC [11] [µg/mL]	MIC [12] [µg/mL]	MIC [13] [µg/mL]	MIC [15] [µg/mL]	MIC [16] [µg/mL]	MIC [17] [µg/mL]	MIC [18] [µg/mL]	MIC [19] [µg/mL]	MIC [20] [µg/mL]	MIC [21] [µg/mL]	also measured
CO/N=C(\C(=O)N[C@@H]1C(=O)N2C(C(=O)[O-])=C(C[n+]3cccc4c3CCC4)CS[C@H]12)c1csc(N)n1 [CPR, Cefpirome, reference compound]	3.1 (≈ 6.02 µM)	6.3 (≈ 12.2 µM)	0.05 (≈ 0.0972 µM)	0.025 (≈ 0.0486 µM)	0.4 (≈ 0.777 µM)	0.012 (≈ 0.0233 µM)	0.025 (≈ 0.0486 µM)	0.8 (≈ 1.55 µM)	6.3 (≈ 12.2 µM)	6.3 (≈ 12.2 µM)	0.012 (≈ 0.0233 µM)	0.012 (≈ 0.0233 µM)	0.8 (≈ 1.55 µM)	0.025 (≈ 0.0486 µM)	0.1 (≈ 0.194 µM)	0.1 (≈ 0.194 µM)	3.1 (≈ 6.02 µM)	0.8 (≈ 1.55 µM)	3.1 (≈ 6.02 µM)	0.1 (≈ 0.194 µM)	MIC ([14]; 20 h): 100 µg/mL (≈ 194 µM)
CO/N=C(\C(=O)N[C@@H]1C(=O)N2C(C(=O)O)=C(COC(C)=O)CS[C@H]12)c1csc(N)n1 [CTX, Cefotaxime, reference compound]		25 (≈ 54.9 µM)	0.05 (≈ 0.11 µM)	0.025 (≈ 0.0549 µM)	1.6 (≈ 3.51 µM)	0.012 (≈ 0.0263 µM)	0.025 (≈ 0.0549 µM)	0.4 (≈ 0.878 µM)	25 (≈ 54.9 µM)	6.3 (≈ 13.8 µM)	0.012 (≈ 0.0263 µM)	0.012 (≈ 0.0263 µM)	1.6 (≈ 3.51 µM)	0.05 (≈ 0.11 µM)	0.05 (≈ 0.11 µM)	0.1 (≈ 0.22 µM)	> 100	3.1 (≈ 6.81 µM)	25 (≈ 54.9 µM)	0.1 (≈ 0.22 µM)	MIC ([14]; 20 h): > 100 µg/mL
CO/N=C(\C(=O)N[C@@H]1C(=O)N2C(C(=O)[O-])=C(/C=C/C[N+](C)(C)Cc3scnc3C)CS[C@H]12)c1csc(N)n1 [Example 1, 7β-[(Z)-2-(2-aminothiazol-4-yl)-2-methoxyiminoacetamido]-3-[(E)-3-[(4-methylthiazol-5-yl)-methyldimethylammonio]-1-propen-1-yl]3-cephem-4-carboxylate]	6.3 (≈ 10.9 µM)		0.05 (≈ 0.0865 µM)	0.025 (≈ 0.0433 µM)	0.4 (≈ 0.692 µM)		< 0.006	0.4 (≈ 0.692 µM)	12.5 (≈ 21.6 µM)	6.3 (≈ 10.9 µM)	0.025 (≈ 0.0433 µM)	0.006 (≈ 0.0104 µM)	0.4 (≈ 0.692 µM)	0.012 (≈ 0.0208 µM)	0.05 (≈ 0.0865 µM)	0.05 (≈ 0.0865 µM)	0.4 (≈ 0.692 µM)	0.8 (≈ 1.38 µM)	3.1 (≈ 5.37 µM)	0.1 (≈ 0.173 µM)	LD50 at 168 h [22, 24]: > 3000 mg/kg; LD50 at 168 h [22, 25]: > 2000 mg/kg; LD50 at 168 h [22, 26]: > 4000 mg/kg; LD50 at 168 h ([22]; sc, subcutaneous routes, read-out: acute toxicity in subcutaneous routes): > 3000 mg/kg; MICs compared with Cefotaxime [23]: superior to that of Cefotaxime; MIC ([14]; Streptococcus faecium MD 8b, agar dilution, 37° C., 18 to 20 hours): 50 µg/mL (≈ 86.5 µM)
CO/N=C(\C(=O)N[C@@H]1C(=O)N2C(C(=O)[O-])=C(/C=C/C[N+](C)(C)Cc3nc[nH]c3C)CS[C@H]12)c1csc(N)n1 [Example 2, 7β-[(Z)-2-(2-aminothiazol-4-yl)-2-methoxyiminoacetamido]-3-[(E)-3-[(5-methylimidazol-4-yl)-methyldimethylammonio]-1-propen-1-yl]3-cephem-4-carboxylate]																					LD50 at 168 h [22, 24]: > 2000 mg/kg; LD50 at 168 h [22, 25]: > 2000 mg/kg; LD50 at 168 h [22, 26]: > 3000 mg/kg
